ChEMBL document CHEMBL5390253, “Discovery of Selective and Potent Macrocyclic CDK9 Inhibitors for the Treatment of Osimertinib-Resistant Non-Small-Cell Lung Cancer” (J Med Chem, 2023)

Experiments:
[1] = Antitumor activity against patient derived #0243 lung cancer organoid assessed as inhibition of growth measured after 4 days; format: functional, tissue-based; conditions: Homo sapiens, 96 h
[2] = target: T1, Cyclin-dependent kinase 2/cyclin E1 (Homo sapiens) (UniProt P24864+P24941); assay: Inhibition of CDK2/cyclin E1 (unknown origin) at 500 nM preincubated for 10 mins followed by substrate addition and measured after 60 mins in presence of ATP by ADP-Glo reagent based assay relative to control; format: protein-complex assay; conditions: time 70.0 min
[3] = Induction of apoptosis in human Osimertinib-resistant NCI-H1975 cell assessed as late apoptotic cells at 500 nM measured after 16 hrs by Annexin V-FITC and PI staining based analysis (reference value: 2.84%); format: functional
[4] = target: CDK1/Cyclin E (Homo sapiens) (UniProt P06493+P24864); assay: Inhibition of CDK1/Cyclin E1 (unknown origin) at 200 nM preincubated for 10 mins followed by substrate addition and measured after 60 mins in presence of ATP by ADP-Glo reagent based assay relative to control; format: protein-complex assay; conditions: time 70.0 min
[5] = Induction of apoptosis in human Osimertinib-resistant NCI-H1975 cell assessed as late apoptotic cells at 125 nM measured after 16 hrs in presence of osimertinib by Annexin V-FITC and PI staining based analysis (Rvb =2.84%); format: functional
[6] = system: NCI-H1975; assay: Downregulation of Bcl-2 level in human Osimertinib-resistant NCI-H1975 cell measured after 16 hrs by Western blot analysis; format: functional, cell-based; conditions: dose 125-2000 nM
[7] = system: NCI-H1975; assay: Downregulation of Mcl-1 level in human Osimertinib-resistant NCI-H1975 cell at 500 nM by Western blotting analysis; format: functional, cell-based; conditions: time 2-12 hrs, TDE = time-dependent effect
[8] = Toxicity in ICR mouse assessed as abnormalities in liver at 1000 mg/kg, po measured after 9 days by H and E staining based analysis; format: organism-based; conditions: in vivo, 216 h, time 9 day
[9] = Metabolic stability in human liver microsomes assessed as half life at 10 uM measured at 5 to 60 mins by LC-MS/MS analysis; format: ADME, Microsome; conditions: time 5-60 min
[10] = target: Dual specificity protein kinase CLK3 (Homo sapiens) (UniProt P49761); assay: Inhibition of CLK3 (unknown origin) at 100 nM preincubated for 10 mins followed by substrate addition and measured after 60 mins in presence of ATP by ADP-Glo reagent based assay relative to control; conditions: time 70.0 min
[11] = Antitumor activity against patient derived #2566 lung cancer organoid assessed as inhibition of growth measured after 4 days; format: functional, tissue-based; conditions: Homo sapiens, 96 h
[12] = AUC in Sprague-Dawley rat at 2 mg/kg, iv measured upto 24 hrs; format: ADME, organism-based; parameters: dose 2 mg/kg, time < 24 hrs, route iv; conditions: in vivo
[13] = Toxicity in ICR mouse assessed as effect on physical appearance at 100 mg/kg, iv measured for 8 to 9 days; format: organism-based; conditions: in vivo, time 8-9 day
[14] = Antitumor activity against patient derived #0085 lung cancer organoid assessed as inhibition of growth measured after 4 days; format: functional, tissue-based; conditions: Homo sapiens, 96 h
[15] = Induction of apoptosis in human Osimertinib-resistant NCI-H1975 cell assessed as early apoptotic cells at 125 nM measured after 16 hrs in presence of osimertinib by Annexin V-FITC and PI staining based analysis (Rvb =1.78%); format: functional
[16] = Apparent volume of distribution in Sprague-Dawley rat at 2 mg/kg, iv measured upto 24 hrs; format: ADME, organism-based; conditions: in vivo, read-out: Vz
[17] = target: Tyrosine-protein kinase JAK2 (Homo sapiens) (UniProt O60674); assay: Inhibition of JAK2 (unknown origin) at 100 nM preincubated for 10 mins followed by substrate addition and measured after 60 mins in presence of ATP by ADP-Glo reagent based assay relative to control; conditions: time 70.0 min
[18] = target: T1, Cyclin-dependent kinase 2/cyclin E1 (Homo sapiens); assay: Inhibition of CDK2/Cyclin E1 (unknown origin) at 200 nM preincubated for 10 mins followed by substrate addition and measured after 60 mins in presence of ATP by ADP-Glo reagent based assay relative to control; format: protein-complex assay; conditions: time 70.0 min
[19] = Induction of apoptosis in human Osimertinib-resistant NCI-H1975 cell assessed as viable cells at 500 nM measured after 16 hrs by Annexin V-FITC and PI staining based analysis (reference value: 94.9%); format: functional; conditions: read-out: Activity
[20] = Induction of apoptosis in human Osimertinib-resistant NCI-H1975 cell assessed as necrotic cells at 500 nM measured after 16 hrs by Annexin V-FITC and PI staining based analysis (reference value: 0.50%); format: functional
[21] = Antitumor activity against patient derived #0416 lung cancer organoid assessed as inhibition of growth measured after 4 days; format: functional, tissue-based; conditions: Homo sapiens, 96 h
[22] = target: Cyclin-dependent kinase 4/cyclin D1 (Homo sapiens) (UniProt P11802+P24385); assay: Inhibition of CDK4/Cyclin D1 (unknown origin) at 200 nM preincubated for 10 mins followed by substrate addition and measured after 60 mins in presence of ATP by ADP-Glo reagent based assay relative to control; format: protein-complex assay; conditions: time 70.0 min
[23] = target: CDK12/Cyclin K (Homo sapiens) (UniProt O75909+Q9NYV4); assay: Inhibition of CDK12/cyclin K (unknown origin) at 200 nM preincubated for 10 mins followed by substrate addition and measured after 60 mins in presence of ATP by ADP-Glo reagent based assay relative to control; format: protein-complex assay; conditions: time 70.0 min
[24] = target: Cyclin-dependent kinase 5/CDK5 activator 1 (Homo sapiens) (UniProt Q00535+Q15078); assay: Inhibition of CDK5/p35NCK (unknown origin) at 200 nM preincubated for 10 mins followed by substrate addition and measured after 60 mins in presence of ATP by ADP-Glo reagent based assay relative to control; format: protein-complex assay; conditions: time 70.0 min
[25] = Induction of apoptosis in human Osimertinib-resistant NCI-H1975 cell assessed as viable cells at 125 nM measured after 16 hrs in presence of osimertinib by Annexin V-FITC and PI staining based analysis (reference value: 94.9%); format: functional; conditions: read-out: Activity
[26] = target: Cyclin-dependent kinase 13/Cyclin-K (Homo sapiens) (UniProt Q14004+O75909); assay: Inhibition of CDK13/cyclin K (unknown origin) at 200 nM preincubated for 10 mins followed by substrate addition and measured after 60 mins in presence of ATP by ADP-Glo reagent based assay relative to control; format: protein-complex assay; conditions: time 70.0 min
[27] = target: Cyclin-dependent kinase 9 (Homo sapiens) (UniProt P50750); assay: Inhibition of CDK9 in human Osimertinib-resistant NCI-H1975 cell assessed as suppression of p-RNAP II phosphorylation at Ser2 residue incubated for 8 hrs by Western blot analysis; format: cell-based; conditions: dose 0.05-1 µM
[28] = Induction of apoptosis in human Osimertinib-resistant NCI-H1975 cell assessed as viable cells at 2000 nM measured after 16 hrs by Annexin V-FITC and PI staining based analysis (reference value: 94.9%); format: functional; conditions: read-out: Activity
[29] = system: HCC827; assay: Antiproliferative activity against human HCC827 cells incubated for 72 hrs by MTT assay; format: functional, cell-based; conditions: HCC827, 72 h
[30] = Toxicity in ICR mouse assessed as abnormalities in spleen at 1000 mg/kg, po measured after 9 days by H and E staining based analysis; format: organism-based; conditions: in vivo, 216 h, time 9 day
[31] = target: Mitogen-activated protein kinase 15 (Homo sapiens) (UniProt Q8TD08); assay: Inhibition of ERK7 (unknown origin) at 500 nM preincubated for 10 mins followed by substrate addition and measured after 60 mins in presence of ATP by ADP-Glo reagent based assay relative to control; conditions: time 70.0 min
Sequence of Mitogen-activated protein kinase 15 (Homo sapiens) (Q8TD08 whole entry): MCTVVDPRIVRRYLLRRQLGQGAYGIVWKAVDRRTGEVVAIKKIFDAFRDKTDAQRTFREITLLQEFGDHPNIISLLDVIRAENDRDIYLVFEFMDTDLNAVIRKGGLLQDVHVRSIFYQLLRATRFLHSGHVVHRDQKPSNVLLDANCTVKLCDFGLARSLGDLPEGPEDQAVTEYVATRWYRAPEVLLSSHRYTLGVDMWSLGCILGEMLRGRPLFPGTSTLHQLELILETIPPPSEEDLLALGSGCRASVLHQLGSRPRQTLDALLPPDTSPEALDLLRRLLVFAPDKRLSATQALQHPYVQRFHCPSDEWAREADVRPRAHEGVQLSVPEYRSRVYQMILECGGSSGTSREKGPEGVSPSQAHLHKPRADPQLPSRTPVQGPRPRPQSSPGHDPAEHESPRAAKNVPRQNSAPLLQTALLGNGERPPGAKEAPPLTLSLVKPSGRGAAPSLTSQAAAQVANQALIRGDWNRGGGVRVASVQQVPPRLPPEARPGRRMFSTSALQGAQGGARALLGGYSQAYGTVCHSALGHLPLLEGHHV

Sequence of Dual specificity protein kinase CLK3 (Homo sapiens) (P49761 whole entry, looked up): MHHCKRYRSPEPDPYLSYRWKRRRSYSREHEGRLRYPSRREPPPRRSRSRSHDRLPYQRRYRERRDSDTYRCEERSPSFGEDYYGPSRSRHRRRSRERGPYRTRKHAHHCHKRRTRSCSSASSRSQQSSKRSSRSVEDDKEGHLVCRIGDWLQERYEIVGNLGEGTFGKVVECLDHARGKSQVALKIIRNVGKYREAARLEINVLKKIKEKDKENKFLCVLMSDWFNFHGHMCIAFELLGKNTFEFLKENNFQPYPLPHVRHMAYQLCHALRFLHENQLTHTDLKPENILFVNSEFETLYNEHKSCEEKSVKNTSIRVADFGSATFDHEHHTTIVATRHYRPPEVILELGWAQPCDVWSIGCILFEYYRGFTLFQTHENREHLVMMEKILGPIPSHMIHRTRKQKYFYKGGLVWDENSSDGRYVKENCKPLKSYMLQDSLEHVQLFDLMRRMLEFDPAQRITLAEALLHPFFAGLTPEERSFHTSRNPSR
Sequence of CDK1/Cyclin E (Homo sapiens) (P06493 whole entry, looked up): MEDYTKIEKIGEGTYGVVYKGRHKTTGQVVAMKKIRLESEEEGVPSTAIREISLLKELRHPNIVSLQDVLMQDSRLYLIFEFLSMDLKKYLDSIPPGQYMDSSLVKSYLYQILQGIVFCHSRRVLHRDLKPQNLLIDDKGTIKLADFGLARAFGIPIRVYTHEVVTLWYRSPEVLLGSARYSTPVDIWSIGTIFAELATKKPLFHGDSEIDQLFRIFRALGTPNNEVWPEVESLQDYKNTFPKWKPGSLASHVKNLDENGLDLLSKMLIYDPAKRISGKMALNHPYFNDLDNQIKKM
Sequence of CDK1/Cyclin E (Homo sapiens) (P24864 whole entry, looked up): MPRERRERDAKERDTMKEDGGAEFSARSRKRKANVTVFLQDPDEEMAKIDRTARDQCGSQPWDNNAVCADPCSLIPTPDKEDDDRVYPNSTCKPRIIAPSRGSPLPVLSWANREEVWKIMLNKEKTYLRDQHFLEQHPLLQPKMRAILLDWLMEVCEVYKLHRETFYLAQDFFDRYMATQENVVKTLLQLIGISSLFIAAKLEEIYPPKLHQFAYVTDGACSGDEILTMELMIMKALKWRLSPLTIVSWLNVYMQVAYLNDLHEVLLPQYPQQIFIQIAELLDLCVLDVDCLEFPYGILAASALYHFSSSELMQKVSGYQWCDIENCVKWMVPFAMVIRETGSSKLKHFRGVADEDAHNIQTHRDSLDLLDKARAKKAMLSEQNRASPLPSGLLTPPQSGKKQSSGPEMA
Sequence of Tyrosine-protein kinase JAK2 (Homo sapiens) (O60674 whole entry): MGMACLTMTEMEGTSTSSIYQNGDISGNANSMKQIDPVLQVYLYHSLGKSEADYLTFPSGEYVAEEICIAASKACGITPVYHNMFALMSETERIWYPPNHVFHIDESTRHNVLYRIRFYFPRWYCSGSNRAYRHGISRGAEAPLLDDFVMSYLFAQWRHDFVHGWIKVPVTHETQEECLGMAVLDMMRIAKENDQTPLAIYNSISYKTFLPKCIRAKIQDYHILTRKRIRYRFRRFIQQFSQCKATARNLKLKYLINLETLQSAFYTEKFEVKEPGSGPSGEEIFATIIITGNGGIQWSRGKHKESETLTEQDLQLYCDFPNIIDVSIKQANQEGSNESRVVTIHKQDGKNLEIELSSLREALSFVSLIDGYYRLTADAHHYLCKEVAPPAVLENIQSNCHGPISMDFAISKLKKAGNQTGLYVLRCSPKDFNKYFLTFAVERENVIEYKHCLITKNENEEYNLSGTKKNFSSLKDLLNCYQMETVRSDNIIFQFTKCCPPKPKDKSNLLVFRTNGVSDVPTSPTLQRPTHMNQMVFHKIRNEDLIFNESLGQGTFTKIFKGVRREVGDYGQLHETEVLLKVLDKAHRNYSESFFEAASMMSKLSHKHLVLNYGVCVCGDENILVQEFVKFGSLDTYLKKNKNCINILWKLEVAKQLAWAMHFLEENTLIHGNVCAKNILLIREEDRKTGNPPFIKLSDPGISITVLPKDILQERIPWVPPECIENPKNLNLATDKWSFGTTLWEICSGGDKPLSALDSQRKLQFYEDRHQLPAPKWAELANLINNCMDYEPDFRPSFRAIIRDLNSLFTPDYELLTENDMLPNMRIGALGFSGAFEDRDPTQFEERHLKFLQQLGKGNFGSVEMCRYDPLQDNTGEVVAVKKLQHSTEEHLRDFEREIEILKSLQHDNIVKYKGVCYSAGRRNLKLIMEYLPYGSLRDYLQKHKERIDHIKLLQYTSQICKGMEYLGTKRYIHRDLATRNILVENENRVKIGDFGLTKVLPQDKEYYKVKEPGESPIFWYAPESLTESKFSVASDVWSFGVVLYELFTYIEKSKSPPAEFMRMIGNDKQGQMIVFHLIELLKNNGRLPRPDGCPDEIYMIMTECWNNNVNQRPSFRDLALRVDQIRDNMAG
Sequence of Cyclin-dependent kinase 5/CDK5 activator 1 (Homo sapiens) (Q00535 whole entry): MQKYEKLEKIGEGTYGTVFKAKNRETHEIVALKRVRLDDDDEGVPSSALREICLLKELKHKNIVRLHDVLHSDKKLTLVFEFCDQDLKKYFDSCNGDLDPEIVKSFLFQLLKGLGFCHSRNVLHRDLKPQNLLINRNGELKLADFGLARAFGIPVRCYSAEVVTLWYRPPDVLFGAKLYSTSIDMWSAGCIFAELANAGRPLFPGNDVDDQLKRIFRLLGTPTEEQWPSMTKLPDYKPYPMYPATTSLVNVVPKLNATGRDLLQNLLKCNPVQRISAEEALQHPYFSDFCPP
Sequence of Cyclin-dependent kinase 5/CDK5 activator 1 (Homo sapiens) (Q15078 99-307 partner limits assumed): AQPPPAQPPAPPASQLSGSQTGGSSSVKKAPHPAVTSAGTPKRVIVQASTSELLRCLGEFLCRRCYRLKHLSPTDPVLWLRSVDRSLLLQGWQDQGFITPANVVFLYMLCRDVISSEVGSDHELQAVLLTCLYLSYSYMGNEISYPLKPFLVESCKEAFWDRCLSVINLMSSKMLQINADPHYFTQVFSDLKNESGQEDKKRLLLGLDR
Sequence of Cyclin-dependent kinase 9 (Homo sapiens) (P50750 whole entry): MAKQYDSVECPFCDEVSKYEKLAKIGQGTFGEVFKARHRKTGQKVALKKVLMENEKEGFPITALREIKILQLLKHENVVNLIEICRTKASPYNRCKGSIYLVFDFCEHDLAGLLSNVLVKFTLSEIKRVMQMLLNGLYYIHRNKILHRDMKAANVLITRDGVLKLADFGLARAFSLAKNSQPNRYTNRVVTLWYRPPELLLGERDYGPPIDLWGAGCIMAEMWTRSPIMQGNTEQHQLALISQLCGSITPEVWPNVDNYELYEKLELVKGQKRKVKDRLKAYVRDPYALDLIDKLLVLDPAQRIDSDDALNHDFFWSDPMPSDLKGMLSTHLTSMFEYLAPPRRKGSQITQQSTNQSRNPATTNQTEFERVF

inhibition [2]: 76.1%
inhibition [4]: 16.4%
half-life at 10 µM [9]: 10.7 min
inhibition [10]: 5.7%
AUC at 24 h [12]: 1080 ng·h/mL
Vd [16]: 12 L/kg
inhibition [17]: 23.3%
inhibition [18]: 44.7%
inhibition [22]: 32.1%
inhibition [23]: 56.4%
inhibition [24]: 16.3%
inhibition [26]: 46.7%
inhibition [27]: Dose-Dependent Effect
IC50 [29]: 315 nM
SMILES: O=C(NCCN1CCOCC1)c1ccc2cc1OCCCCCCOc1cc(ccc1F)-c1nc(ncc1F)N2
IC50 [1]: 120 nM
Activity [3]: 7.02%
Activity [5]: 18.2%
Activity [6]: Dose-Dependent Effect
Activity [7]: Tde
Activity [8]: Non-Toxic
IC50 [11]: < 20 nM
Activity [13]: Non-Toxic
IC50 [14]: 130 nM
Activity [15]: 3.15%
viability at 0.5 µM [19]: 75.6%
Activity [20]: 2.92%
IC50 [21]: 79 nM
viability at 0.125 µM [25]: 78.3%
viability at 2 µM [28]: 65.5%
Activity [30]: Non-Toxic
inhibition [31]: 83.5%
